Results reported in paper PMC5171792 (Scientific Reports, 2016).
Where two headings read alike, the source gives them in different places.

Columns and labels:
H1N1 NA = H1N1 NA (Influenza A virus (H1N1), UniProt C3W5S3); test: biochemical; assay type: biochemical
[1] = test system: A/Malaysia/Muar/33/2009 (H1N1); test: Antiviral (virus inhibition) assay in MDCK cells, plaque reduction; assay type: cell-based; conditions: Influenza A virus
MDCK cells [2] = test system: MDCK cells
in vitro = conditions: dog
MDCK cells [3] = test: Cell cytotoxicity, cell proliferation assay with WST-1 reagent

Structure (SMILES)	ΔGbind (estimated experimental) (H1N1 NA) [kcal/mol]	EC50 [1] [µM]	CC50 (in vitro) [µM]	also measured
CCOC(=O)/C=C/c1cc(OC)c(O)c([N+](=O)[O-])c1 [MY2]	-4.70	–	–	–
CC(=O)N[C@H]1[C@H]([C@H](O)[C@H](O)CO)OC(C(=O)O)=C[C@@H]1O [DANA, 2-deoxy-2,3-didehydro-N-acetylneuraminic acid, reference compound]	-6.50	–	–	–
COC(=O)/C=C/c1cc(OC)c(O)c([N+](=O)[O-])c1 [MY13]	-4.19	–	–	–
CCOC(=O)/C=C/c1cc(OC)c(OC(C)C)c([N+](=O)[O-])c1 [MY3]	-5.27	7.5 ± 9.3	321	toxicity on the MDCK cells (MDCK cells [2]): without showing any signs of toxicity at high concentrations
CCOC(=O)/C=C/c1ccc(O)c(OC)c1 [MY10]	-4.42	–	–	–
CCCOC(=O)/C=C/c1cc(OC)c(O)c([N+](=O)[O-])c1 [MY14]	-4.76	–	–	–
COc1cc(/C=C/C(=O)O)ccc1S(=O)(=O)c1ccc(Oc2ccccc2)cc1 [MY20]	-3.91	–	–	–
COc1ccc(S(=O)(=O)c2ccc(/C=C/C(=O)O)cc2OC)cc1 [MY19]	-4.38	–	–	–
COc1cccc(S(=O)(=O)c2ccc(/C=C/C(=O)O)cc2OC)c1 [MY18]	-3.91	–	–	–
CCCCOC(=O)/C=C/c1ccc(O)c(OC)c1 [MY12]	-3.91	–	–	–
CCCCOC(=O)/C=C/c1cc(OC)c(O)c([N+](=O)[O-])c1 [MY15]	-3.91	~0.95	352	toxicity on the MDCK cells (MDCK cells [2]): without showing any signs of toxicity at high concentrations
COc1cc(C=O)cc(O)c1O [MY23, 3-hydroxyvanillin]	-5.43	40.5 ± 3.7	601	% inhibition of H1N1 NA (H1N1 NA): high inhibition; toxicity on the MDCK cells (MDCK cells [2]): significant reduction in cell viability
COc1cc(/C=C/C(=O)O)ccc1O [FA, Ferulic acid, reference compound]	-5.02	1.32 ± 0.08	–	inhibition at 125 µg/mL (H1N1 NA; read-out: % inhibition of H1N1 NA): 86%; CC50 (in vitro; MDCK cells): 702 µM; toxicity on the MDCK cells (MDCK cells [3]): without showing any signs of toxicity at high concentrations
CCCOC(=O)/C=C/c1ccc(O)c(OC)c1 [MY11]	-4.36	–	–	–
CCC(CC)O[C@@H]1C=C(C(=O)O)C[C@H](N)[C@H]1NC(C)=O [Oseltamivir carboxylate, reference compound]	–	35	351	–
COC(=O)/C=C/c1ccc(O)c(OC)c1 [MY9]	-4.85	–	–	–
COc1c(O)ccc(/C=C/C(=O)O)c1[N+](=O)[O-] [MY24]	-4.31	–	–	melting point: 165 to 169 °C
COc1cc(C=O)ccc1O [VN, Vanillin, reference compound]	-4.78	6.05 ± 4.3	657	toxicity on the MDCK cells (MDCK cells [2]): without showing any signs of toxicity at high concentrations
COc1cc(C=O)cc(NCCO)c1O [MY22]	-4.67	–	–	–
COc1cc(C=O)cc(N=C(N)N)c1O [MY21, guanidino vanillin]	-5.60	1.7 ± 0.02	478	toxicity on the MDCK cells (MDCK cells [2]): without showing any signs of toxicity at high concentrations
